Assay results: patent publication US12343347B2 (Biohaven Pharmaceutical Holding Company Ltd., priority 2012, dated 2025)

Legend:
Assay type in all cases: in vitro ADME
[1] = Plasma stability in fresh human plasma; conditions: 1 uM, 37° C.
Procedure: (§1) Plasma Stability: Assessment of plasma stability was carried out by individual incubations of drug candidates in fresh mouse or human control plasma at a concentration of 1 uM for 1 hour at 37° C. After which, the samples were de-proteinized by addition of 2 volumes of acetonitrile containing 0.1% formic acid and internal standard, vortex mixed for 2 minutes and centrifuged at 4000 rpm for 10 minutes to pellet precipitated protein. The resulting supernatant containing the drug candidates was diluted 5-fold with water containing 0.1% formic acid and submitted to LC-MS/MS analysis. All determinations were done in triplicate. […]
(§2) LC-MS/MS Analysis: An aliquot from each incubation was analyzed by LC-MS/MS with SRM detection in the positive ionization mode using an ABSciex API 5500 QTrap Mass Spectrometer interfaced via the ABSciex Turbo V IonSpray source (ESI) to an Eksigent ExpressHT LC system. […] A fast gradient, from 15 to 85% organic in 2.5 minutes, with run time of 5.0 minutes, and flow rate of 50 uL/min was utilized. Peak areas were integrated using MultiQuant v2.0 software from ABSciex.

[2] = Metabolic stability in pooled human liver microsomes; conditions: human liver microsomes 0.5 mg/mL, 1 uM, NADPH, 37° C.
Procedure: (§3) Metabolic Stability: In vitro metabolic stability was determined in pooled mouse or human liver microsomes (BD Gentest) at a protein concentration of 0.5 mg/mL in reaction buffer (100 mM KH2PO4, pH 7.4 and 12 mM MgCl2). Each drug candidate was added to a final concentration of 1 uM. This mixture was pre-warmed to 37° C. for 10 minutes prior to starting the reaction with the addition of β-Nicotinamide adenine dinucleotide 2′-phosphate reduced (NADPH) to a final concentration of 1 mM. A parallel incubation lacking NADPH served as the control. After incubation for 30 min at 37° C., the reactions were quenched by the addition of acetonitrile containing 0.1% formic acid and internal standard, vortex mixed for 2 minutes and centrifuged at 4000 rpm for 10 minutes to pellet the precipitated protein. The resulting supernatant containing the drug candidate and its potential metabolites was diluted 5-fold with water containing 0.1% formic acid and submitted to LC-MS/MS analysis. […]
as §2

[3] = Metabolic stability in pooled mouse liver microsomes; conditions: mouse liver microsomes 0.5 mg/mL, 1 uM, NADPH, 37° C.
Procedure: as §3, §2

[4] = Plasma stability in fresh mouse plasma; conditions: 1 uM, 37° C.
Procedure: as §1, §2

[5] = Stability in Simulated Intestinal Fluid (SIF); conditions: SIF:acetonitrile 9:1, 0.01 mg/mL, 37° C.
Procedure: (§4) Stability in Simulated Gastric Fluid (SGF) and Simulated Intestinal Fluid (SIF). Procedure from Baudy et. al. (J. Med. Chem. 2009, 52, 771-778) used. The physiological stability of pro-drugs was determined by examining the stability of the compound in SGF, and SIF at 37° C. The compounds were prepared in a 9:1 mixture of the appropriate test component (SGF, SIF) and acetonitrile to a final concentration of 0.01 mg/mL. The samples were thoroughly mixed and maintained at 37° C. Each sample was injected consecutively onto an Agilent 1100 system (Luna C18, 3 μm, 50 mm×3 mm; 1 mL/min; mobile phase of 0.1% trifluoroacetic acid in water/0.1% trifluoroacetic acid in acetonitrile) after a 3 h period. The percent remaining of pro-drug was calculated by comparing the area of pro-drug compound versus riluzole generated. The identities of the parent compounds and conversion products were confirmed by LC/MS.

[6] = Stability in Simulated Gastric Fluid (SGF); conditions: SGF:acetonitrile 9:1, 0.01 mg/mL, 37° C.
Procedure: as §4

Compound | Plasma Stability Human (1 hour), percent of pro-drug metabolized to riluzole [1] | Metabolic Stability human (30 minutes), percent of pro-drug metabolized to riluzole [2] | Metabolic Stability mouse (30 minutes), percent of pro-drug metabolized to riluzole [3] | Plasma Stability mouse (1 hour), percent of pro-drug metabolized to riluzole [4] | SIF (3 hours), percent of pro-drug metabolized to riluzole [5] | SGF (3 hours), percent of pro-drug metabolized to riluzole [6]
NCC(=O)Nc1nc2ccc(OC(F)(F)F)cc2s1 [Cpd 1, 2-Amino-N-(6-trifluoromethoxy-benzothiazol-2-yl)-acetamide] | 3% | 7% | 4% | 11% |  | 
C[C@@H](N)C(=O)Nc1nc2ccc(OC(F)(F)F)cc2s1 [Cpd 2, (R)-2-Amino-N-(6-trifluoromethoxy-benzothiazol-2-yl)-propionamide] | 15% | 4% | 10% | 36% | 50% | 0%
N[C@H](Cc1ccccc1)C(=O)Nc1nc2ccc(OC(F)(F)F)cc2s1 [Cpd 4, (R)-2-Amino-3-phenyl-N-(6-trifluoromethoxy-benzothiazol-2-yl)-propionamide] | 6% | 18% | 12% | 47% | 0% | 3%
N[C@H](COCc1ccccc1)C(=O)Nc1nc2ccc(OC(F)(F)F)cc2s1 [Cpd 5, (R)-2-Amino-3-benzyloxy-N-(6-trifluoromethoxy-benzothiazol-2-yl)-propionamide] | 3% | 0% | 24% | 25% |  | 
C[C@H](N)C(=O)Nc1nc2ccc(OC(F)(F)F)cc2s1 [Cpd 7, (S)-2-Amino-N-(6-trifluoromethoxy-benzothiazol-2-yl)-propionamide] | 10% | 0% | 1% | 28% | 50% | 0%
N[C@@H](Cc1ccccc1)C(=O)Nc1nc2ccc(OC(F)(F)F)cc2s1 [Cpd 9, (S)-2-Amino-3-phenyl-N-(6-trifluoromethoxy-benzothiazol-2-yl)-propionamide] | 7% | 0% | 2% | 0% |  | 
N[C@@H](COCc1ccccc1)C(=O)Nc1nc2ccc(OC(F)(F)F)cc2s1 [Cpd 10, (S)-2-Amino-3-benzyloxy-N-(6-trifluoromethoxy-benzothiazol-2-yl)-propionamide] | 9% | 15% | 0% | 52% | 0% | 0%
CC(C)[C@H](N)C(=O)Nc1nc2ccc(OC(F)(F)F)cc2s1 [Cpd 11, (S)-2-Amino-3-methyl-N-(6-trifluoromethoxy-benzothiazol-2-yl)-butyramide] | 11% | 6% | 40% | 45% | 40% | 0%
COC(=O)Nc1nc2ccc(OC(F)(F)F)cc2s1 [Cpd 12, (6-Trifluoromethoxy-benzothiazol-2-yl)-carbamic acid methyl ester] | 15% | 0% | 10% | 0% | 0% | 0%
CCOC(=O)Nc1nc2ccc(OC(F)(F)F)cc2s1 [Cpd 13, (6-Trifluoromethoxy-benzothiazol-2-yl)-carbamic acid ethyl ester] | 0% | 7% | 8% | 0% | 0% | 0%
CCCOC(=O)Nc1nc2ccc(OC(F)(F)F)cc2s1 [Cpd 14, (6-Trifluoromethoxy-benzothiazol-2-yl)-carbamic acid propyl ester] | 0% | 34% | 15% | 0% | 0% | 0%
CCCCOC(=O)Nc1nc2ccc(OC(F)(F)F)cc2s1 [Cpd 15, (6-Trifluoromethoxy-benzothiazol-2-yl)-carbamic acid butyl ester] | 0% | 13% | 53% | 9% | 0% | 0%
CC(C)COC(=O)Nc1nc2ccc(OC(F)(F)F)cc2s1 [Cpd 16, (6-Trifluoromethoxy-benzothiazol-2-yl)-carbamic acid isobutyl ester] | 0% | 14% | 23% | 0% | 0% | 5%
CCCCCCOC(=O)Nc1nc2ccc(OC(F)(F)F)cc2s1 [Cpd 17, (6-Trifluoromethoxy-benzothiazol-2-yl)-carbamic acid hexyl ester] |  |  |  |  |  | 0%
CN(C)CCOC(=O)Nc1nc2ccc(OC(F)(F)F)cc2s1 [Cpd 18, (6-Trifluoromethoxy-benzothiazol-2-yl)-carbamic acid 2-dimethylamino-ethyl ester] | 0% | 10% | 13% | 3% | 0% | 0%
O=C(CCC(=O)Nc1nc2ccc(OC(F)(F)F)cc2s1)NCCN1CCOCC1 [Cpd 24, N-(2-Morpholin-4-yl-ethyl)-N′-(6-trifluoromethoxy-benzothiazol-2-yl)-succinamide] |  |  |  |  | 60% | 0%
NCC1(CC(=O)Nc2nc3ccc(OC(F)(F)F)cc3s2)CCCCC1 [Cpd 29, 2-(1-Aminomethyl-cyclohexyl)-N-(6-trifluoromethoxy-benzothiazol-2-yl)-acetamide] |  |  |  |  | 50% | 0%
